# Test results reported in patent US20190388389A1, “METHODS AND COMPOSITIONS OF CARNOSOL FOR INHIBITING UVB-INDUCED SKIN DAMAGE” (Ohio University, priority 2017, published 2019).
# Columns and labels:
# [1] = test system: intracellular ROS level in HaCaT cells; assay: ROS measurement with CM-H2DCFDA after UVB radiation; format: cell-based, Human; conditions: for ROS level post-UVB: UVB 50 mJ/cm^2, 6 h, UVB alone 2.1-fold
# Method: FIG. 2: Dose dependent effect of carnosol on UVB-induced intracellular ROS level. HaCaT cells were seeded in 96 well plate and incubated with CM-H2DCFDA dye one hour prior to UVB exposure, with or without carnosol treatment. ROS was measured at 6 h post UVB radiation with indicated concentration of carnosol treatment using ex490/em520 nm. The data represents three to five sets of independent experiments. *p<0.05 versus corresponded control group, **p<0.05 versus UV alone.
# FIGS. 3A-3B: Time dependent effect of carnosol on UVB-induced intracellular ROS level. HaCaT cells were seeded in 96 well plate and CM-H2DCFDA dye was used to measure intracellular ROS level. Carnosol (20 μM) was added to cells 1 h prior to UVB exposure, and ROS level was measured at 20 min intervals post UVB. (FIG. 3A) Intracellular ROS level at 20 min intervals with or without carnosol treatment. (FIG. 3B) Statistical analysis of intracellular ROS level at 240, 480, 720 min post UVB radiation with or without carnosol (20 μM) treatment. *p<0.05 versus corresponded control group, **p<0.05 versus corresponded UV group.
# UVB was generated from a Bench XX-Series UV Lamp (UVP Inc.) equipped with two 15-watt UVB tubes (UVP Inc.). The intensity of UVB was calibrated by a UVP model UVX digital radiometer (UVP Inc.) after the lamps warmed up for 5 min. For irradiating cells, the dose rate for 8 mJ/cm^2 or 50 mJ/cm^2 of UVB radiation was 0.8 or 3.8 mW/s respectively. Medium was removed before exposing the cells to UVB. After UVB radiation, fresh medium was added to the culture plates with or without drugs, and the cells were continue incubating at 37° C. with 5% CO2 until further analysis. Carnosol was disovled in DMSO and was irradiated with 50 mJ/cm^2 of UVB radiation at a dose rate of 3.8 mW/s before subjecting to cells or structure analysis using Mass Spectrum.
# Carnosol (Cayman) (FIG. 1) was added to cells at indicated concentration at 1 h before exposing the cells to UVB radiation. After radiation, cells were continuously incubated with or without carnosol in the medium until further analysis.
# CM-H2DCFDA (Invitrogen) was used to measure the total ROS level in cells. CM-H2DCFDA was dissolved in DMSO to a stock solution of 500 μM and diluted in PBS to final concentration of 5 μM. CM-H2DCFDA was added into cells 1 h prior to UVB exposure and the reading of fluorescence dye was recorded every 20 minutes using luminometer (Molecular devices Spectra Max M2).
# [2] = test system: cyclobutane pyrimidine dimer (CPD) formation; assay: Quantitative measurement of CPD formation after UVB; format: cell-based; conditions: with vs without carnosol
# Source text: FIG. 5E: Quantitative measurement of cyclobutane pyrimidine dimer (CPD) formation, with and without UVB, and with and without carnosol. *p<0.05 versus corresponded control group, **p<0.05 versus corresponded UV group.
# There are two major forms of DNA damage caused by UVB radiation: one is the direct DNA damage which forms CPD; the other is the oxidation-caused DNA damage, which causes the formation of 6-4 PP. In order to identify which form of DNA damage is protected by carnosol, a quantitative assay to identify the production of both DNA damage products after UVB radiation with or without carnosol treatment was performed.
# IκB = assay: Western blot for IκB protein level, MEF cells; format: cell-based, mouse; conditions: 20 μM carnosol, 6 h post UVB
# Method: FIGS. 7A-7F: Carnosol inhibited UVB-induced NF-κB activation. Cells were exposed to UVB radiation in the presence or absence of carnosol. Cells were lysed at indicated time point and protein levels were measured by western blot analysis. (FIG. 7A) Western blot for IκB protein level in HaCaT cells at 2, 4 h post UVB radiation at 1, 10 or 20 μM carnosol treatment. (FIG. 7B) Western blot analysis for IκB protein level in HaCaT cells at 6 h post UVB radiation in the presence or absence of carnosol. (FIG. 7C) Western blot analysis for IκB protein level in MEF cells at 6 h post UVB radiation in the presence or absence of carnosol. (FIG. 7D) Western blot for 5276 site phosphorylation of NF-κB in HaCaT cells at 6 h post UVB with indicated carnosol concentration. (FIG. 7E) EMSA assay for HaCaT cells at 2, 4, 6 h post UVB radiation in the presence or absence of carnosol (20 μM). (FIG. 7F) Statistical analysis of the EMSA assay using two to three sets of independent experiments. *p<0.05 versus control group, **p<0.05 versus UV group at indicated time point.
# Cells were lysed with Nonidet P-40 (NP-40) lysis buffer (2% NP-40, 80 mM NaCl, 100 mM Tris-HCl pH 8.0, 0.1% SDS) with proteinase inhibitor mixture (Complete™, Roche Molecular Biochemicals) at indicated time point. […] Protein concentration was measured by Protein DC Assay kit (Bio-Rad Laboratories). […]
# HaCaT cells = assay: HaCaT transformation in soft agar after repeated UVB; format: cell-based, Human; conditions: 10 mJ/cm^2 UVB every 48 h for 14 days, soft agar 10 days; UVB alone about 3.5 fold
# Method: FIG. 8: Carnosol decreases HaCaT transformation rate upon UVB radiation. HaCaT cells were exposed to 10 mJ/cm^2 UVB radiation every 48 h for 14 days. Cells were then collected and equal amount of cells were then re-seeded into 96 well plate with soft agar. After 10 days of incubation, cells were stained and dissolved and the fluorescent intensity was determined. *p<0.05 versus control group, **p<0.05 versus UV group.
# HaCaT cells were exposed to 10 mJ/cm^2 UVB radiation every 48 h for 14 days. As only cancerous cells can survive in the soft-agar, by staining the survival cells with fluorescent dye, the cell transformation rate was determined.
smiles,measurement,setting,value
CC(C)c1cc2c(c(O)c1O)[C@@]13CCCC(C)(C)[C@@H]1C[C@@H]2OC3=O [carnosol],ROS level post-UVB,[1]; 0.1 μM carnosol,not statistically significantly changed
same,ROS level post-UVB,[1]; 0.5 μM carnosol,not statistically significantly changed
same,ROS level post-UVB,[1]; 10 μM carnosol,about 1.5 fold
same,ROS level in the irradiated cells,"[1]; 20 μM carnosol, 20 min to 10 h post-UVB",continuously reduces
same,decrease of ROS level,"[1]; 20 μM carnosol, 240 min after UVB",~30%
same,decrease of ROS level,"[1]; 20 μM carnosol, 480 min after UVB",~30%
same,decrease of ROS level,"[1]; 20 μM carnosol, 720 min after UVB",~30%
same,ROS level post-UVB,[1]; 20 μM carnosol,~1.3 fold
same,decrease of ROS level,"[1]; 20 μM carnosol, immediately after UVB treatment",20%
same,ROS level in untreated cells,"[1]; 20 μM carnosol, no UVB, 20 min intervals up to 12 h",did not statistically significant affect
same,ROS level post-UVB,[1]; 30 μM carnosol,~1.3 fold
same,ROS level,"[1]; carnosol alone 0.1 μM to 30 μM, no UVB (Control), 6 h",no statistic significant effect
same,formation of CPD after UVB radiation,[2],almost by half
same,IκB protein level,IκB,partial recovery of IκB level
same,cell transformation,HaCaT cells,about 2.2 fold
